According to ChEMBL document CHEMBL3400040, “Antileishmanial pharmacomodulation in 8-nitroquinolin-2(1H)-one series” (Bioorg Med Chem, 2015):

Legend:
Leishmania donovani [1] = assay: Antileishmanial activity against intracellular amastigote stage of Leishmania donovani MHOM/IN/00/DEVI infected in human THP1 cells assessed as decrease infected macrophages after 120 hrs by microscopy; format: functional, organism-based; conditions: THP-1, 120 h
Leishmania donovani [2] = assay: Antileishmanial activity against promastigote stage of Leishmania donovani MHOM/IN/00/DEVI assessed as inhibition of metabolic activity after 72 hrs by MTT assay; format: functional, organism-based
[3] = (§1) Cytotoxicity against human HepG2 cells after 72 hrs by MTT assay; format: cell-based; conditions: HepG2 cells
[4] = Selectivity index, CC50 for human HepG2 cells to IC50 for promastigote stage of Leishmania donovani MHOM/IN/00/DEVI; format: functional
HepG2 = assay: as §1; format: cell-based; conditions: hepg2, 72 h
Leishmania infantum = assay: Antileishmanial activity against intracellular amastigote stage of Leishmania infantum MHOM/MA/67/ITMAP-263 expressing luciferase infected in mouse J774A1 cells assessed as inhibition of metabolic activity after 120 hrs by luminescence assay; format: functional, organism-based; conditions: MHOM/MA/67/ITMAP-263, J774.A1, 120 h
[5] = Cytotoxicity against mouse J774A.1 cells after 72 hrs by MTT assay; format: cell-based; conditions: J774.1, 72 h
THP-1 = assay: Cytotoxicity against human THP1 cells after 72 hrs by MTT assay; format: cell-based; conditions: THP-1, 72 h
[6] = Leishmania donovani, MHOM/IN/00/DEVI, 72 h, read-out: IC50

| Structure (SMILES) | IC50 (Leishmania donovani [2]; [6]) | CC50 at 72 h [3] | Ratio CC50/IC50 [4] | also measured |
| --- | --- | --- | --- | --- |
| O=C(c1cccc([N+](=O)[O-])c1)c1ccc2ccc(/C=C/c3ccc(O)c(O)c3)nc2c1O |  |  |  | IC50 (Leishmania donovani [1]): 1.22 µM |
| O=[N+]([O-])c1c(CS(=O)(=O)c2ccccc2)nc2c(Br)cc(Br)cn12 |  |  |  | IC50 (Leishmania donovani [1]): 5.5 µM |
| Cc1nc2c(Cl)cccc2c(O)c1CN1CCCCC1C (stereo not given) |  |  |  | IC50 (Leishmania donovani [1]): 0.06 µM |
| Nc1cccc2ccc(=O)[nH]c12 | > 50 µM | > 100 µM |  |  |
| O=[N+]([O-])c1cccc2c(Br)cc(Br)nc12 | > 50 µM | > 100 µM |  |  |
| O=c1cc(Br)c2cccc([N+](=O)[O-])c2[nH]1 | 9.6 µM | 27.1 µM |  |  |
| O=c1cc(C#Cc2ccccc2)c2cccc([N+](=O)[O-])c2[nH]1 | 2.7 µM | 11.6 µM | 4.4 |  |
| O=c1cc(C#Cc2ccc(Cl)cc2)c2cccc([N+](=O)[O-])c2[nH]1 |  |  |  | IC50 (Leishmania donovani [2]): ND(Insoluble); CC50 (HepG2): ND(Insoluble) |
| COc1cccc(C#Cc2cc(=O)[nH]c3c([N+](=O)[O-])cccc23)c1 | > 10 µM | > 10 µM |  |  |
| O=c1cc(C#CCOc2ccccc2)c2cccc([N+](=O)[O-])c2[nH]1 | 1.4 µM | 1.8 µM | 1.3 |  |
| O=c1cc(C#CCO)c2cccc([N+](=O)[O-])c2[nH]1 | 2.4 µM | 2.1 µM | 0.9 |  |
| O=c1cc(C#CCCO)c2cccc([N+](=O)[O-])c2[nH]1 | 21.8 µM | 15.9 µM | 0.7 |  |
| CCC(O)CC#Cc1cc(=O)[nH]c2c([N+](=O)[O-])cccc12 (stereo not given) | 16.7 µM | 3.8 µM | 0.2 |  |
| O=c1cc(-c2ccccc2)c2cccc([N+](=O)[O-])c2[nH]1 | 14.7 µM | 31.9 µM | 2.2 |  |
| O=c1cc(-c2ccco2)c2cccc([N+](=O)[O-])c2[nH]1 | > 5 µM | > 31.3 µM |  |  |
| Cc1ccc(-c2cc(=O)[nH]c3c([N+](=O)[O-])cccc23)s1 | > 5 µM | > 15.6 µM |  |  |
| O=c1cc(-c2cccnc2)c2cccc([N+](=O)[O-])c2[nH]1 | > 50 µM | 10.1 µM | <1 |  |

| Structure (SMILES) | IC50 (Leishmania donovani [2]; [6]) | CC50 at 72 h [3] | Ratio CC50/IC50 [4] | also measured |
| --- | --- | --- | --- | --- |
| O=c1cc(-c2ccncc2)c2cccc([N+](=O)[O-])c2[nH]1 | 77.2 µM | 15.7 µM | 0.2 |  |
| O=c1cc(-c2ccc(C(F)(F)F)cc2)c2cccc([N+](=O)[O-])c2[nH]1 | 6.1 µM | 42.7 µM | 7 | IC50 (Leishmania donovani [1]): > 20 µM; IC50 (Leishmania infantum): 11.8 µM; IC50 [5]: 33.4 µM; IC50 (THP-1): > 31.3 µM |
| O=c1cc(-c2ccc(Cl)cc2)c2cccc([N+](=O)[O-])c2[nH]1 | 4.2 µM | 16.1 µM | 3.8 |  |
| O=c1cc(-c2ccc(Br)cc2)c2cccc([N+](=O)[O-])c2[nH]1 | 3.3 µM | > 31.3 µM | >9.5 | IC50 (Leishmania donovani [1]): > 15.6 µM; IC50 (Leishmania infantum): > 20 µM; IC50 [5]: 9 µM; IC50 (THP-1): > 31.3 µM |
| O=c1cc(-c2ccc(F)cc2)c2cccc([N+](=O)[O-])c2[nH]1 | 28 µM | 36.1 µM | 1.3 |  |
| Cc1ccc(-c2cc(=O)[nH]c3c([N+](=O)[O-])cccc23)cc1 | 9.1 µM | 31 µM | 3.4 |  |
| COc1ccc(-c2cc(=O)[nH]c3c([N+](=O)[O-])cccc23)cc1 | 28 µM | 37.1 µM | 1.3 |  |
| O=c1cc(-c2cccc(C(F)(F)F)c2)c2cccc([N+](=O)[O-])c2[nH]1 | > 5 µM | 14.7 µM | <2.9 |  |
| CC(C)(C)OCc1cc(=O)[nH]c2c([N+](=O)[O-])cccc12 | > 50 µM | 5.3 µM | <0.1 |  |
| CCCCCCCCCCCCc1cc(=O)[nH]c2c([N+](=O)[O-])cccc12 |  |  |  | IC50 (Leishmania donovani [2]): ND(Insoluble); CC50 (HepG2): ND(Insoluble) |
| C[C@@H]1[C@H](O)[C@@H](C)/C=C/C=C/C=C/C=C/C=C/C=C/C=C/[C@H](O[C@@H]2O[C@H](C)[C@@H](O)[C@H](N)[C@@H]2O)C[C@@H]2O[C@](O)(C[C@@H](O)C[C@@H](O)[C@H](O)CC[C@@H](O)C[C@@H](O)CC(=O)O[C@H]1C)C[C@H](O)[C@H]2C(=O)O [AMPHOTERICIN B] |  |  |  | IC50 (Leishmania donovani [1]): 0.16 µM; IC50 (Leishmania infantum): 0.06 µM; IC50 [5]: 2.5 µM; IC50 (THP-1): 8.4 µM |
| COc1cccc2c1C(=O)c1c(O)c3c(c(O)c1C2=O)C[C@@](O)(C(=O)CO)C[C@@H]3O[C@H]1C[C@H](N)[C@H](O)[C@H](C)O1 [DOXORUBICIN] |  |  |  | IC50 [5]: 0.06 µM |
| CSc1ccc(OCc2ncc([N+](=O)[O-])n2C)cc1 [FEXINIDAZOLE] |  |  |  | EC50 (Leishmania donovani [1]): 2.8 µM |
| CCCCCCCCCCCCCCCCOP(=O)([O-])OCC[N+](C)(C)C [MILTEFOSINE] |  |  |  | IC50 (Leishmania donovani [1]): 6.8 µM; IC50 (Leishmania infantum): 4.2 µM; IC50 [5]: 90.4 µM; IC50 (THP-1): 40.5 µM |
| N=C(N)c1ccc(OCCCCCOc2ccc(C(=N)N)cc2)cc1 [PENTAMIDINE] |  |  | 0.4 | IC50 (Leishmania donovani [1]): > 20 µM; IC50 (Leishmania infantum): > 20 µM; IC50 [5]: 1 µM |
| CCN(CC)CCCCCCNc1cc(OC)cc2c(C)ccnc12 [SITAMAQUINE] |  |  |  | IC50 (Leishmania donovani [1]): 1 µM |
